From US20220202739A1, “ENDOCANNABINOID MIMETIC AND ANTI-INFLAMMATORY COMPOUND CONTAINING COMPOSITIONS, METHODS OF PREPARATION AND USES THEREOF” (priority 2019, published 2022) come the findings set out here.

Like-named read-outs stand apart in the source and are kept apart here.

In this test the test system is TRPA1. The experiment in a line: Gene expression custom microarray, human skin fibroblasts (Example 1): TRPA1. In kind it is cell-based. As to conditions: for fold induction at 10 µM: Skin fibroblast, read-out: TRPA1↑ gene expression, fold increase or decrease vs untreated cells. From the text:
Cell cultures: A human skin fibroblast cell culture (or cultures) was obtained through the Coriell Cell Repository from the National Institute on Aging Cell Repository (Camden, N.J.), or Promocell GmbH (Heidelberg, Germany). The initial culture was selected from the following cell lines: AG13066, AG11557, AG11796 or GM03651E. The cell lines were derived from donors as follows:
Experimental phase: When the appropriate quantity of cells had been grown, they were detached as described above, but at the final step were seeded into each well of one or more 6 well dishes. Each well received 2 ml of the cell suspension so they were seeded equally. The dishes were returned to the incubator until 85-95% confluency was reached.
It is at this stage that all wells were rinsed in PBS after aspirating the growth media. The compound(s) to be tested were previously mixed into a suitable solvent (e.g., DMSO or ethanol) that can be diluted to the desired concentration of test compound (10 μl) in the culture wells without exceeding maximum solvent concentrations and adversely effecting cell viability, and mixed with basal media. NOTE: Standard maximum levels of solvent are 0.1% for DMSO and 0.5% for ETOH. The concentration of each test compound is found in Tables 1 & 2.
Every 2 wells on the 6 well plate served as a biological replicate for the purposes of RNA isolation and genetic expression evaluations making each 6 well dish an n=3 for the test compound(s) contained in the media. Negative control plates (no test compound(s) and only basal media) were also generated. The plates were returned to the incubator for 24 hrs.
At the end of the 24 hr time period, the plates were removed from the incubator, the test media aspirated, and the cells rinsed with PBS. RNA isolation is performed using the BioRad Aurum Total RNA Mini Kit (Hercules, Calif.) per manufacturer's protocol; which is described, in brief, below: • Add 350 μl of lysis buffer to each well. Pipet multiple times to ensure thorough lysis. Add lysed cells to the collection tube. • Add 350 μl of 70% ETOH to the collection tube and mix thoroughly. • Pipet the generated lysate onto the spin column placed in a new 2 ml tube. Centrifuge for 30 sec between 8,000 and 10,000 g. • Place the spin column containing the now bound RNA, in a new 2 ml tube. Add 700 μl of low stringency wash solution to the spin column. Centrifuge for 30 sec between 8,000 and 10,000 g. Discard the flow through and replace spin column. • Add 80 μl of DNase I dilution to the spin column and incubate at room temperature for 15 minutes. • Add 700 μl of high stringency wash solution to the column and centrifuge for 30 sec between 8,000 and 10,000 g. Discard flow through. • Add 700 μl of low stringency wash solution to the column and centrifuge for 60 sec between 8,000 and 10,000 g. Discard flow through. • Centrifuge for 2 minutes to remove residual wash solution. • Transfer spin column to new 1.5 ml collection tube and add 80 μl of elution solution to the column. Allow 1 minute for saturation of the membrane and then centrifuge for 2 minutes to complete the RNA elution. • Quantify the quantity of RNA and store at −20 C° until use (no more than 1 month)
The genes tested were: • Cannabinoid receptor 1 (CB1(CNR1)) • Cannabinoid receptor 2 (CB2 (CNR2)) • Fatty acid amide hydrolase (FAAH) • Monoacylglycerol lipase (MGLL, i.e., MAGL) • Peroxisome proliferator-activated receptor gamma (PPARG) • Nuclear factor kappa-light-chain-enhancer of activated B cells (NFκβ) • Interleukin 1 Alpha (IL1alpha) • Cyclooxygenase 1 (PTGS1, i.e., COX1) • Transient receptor potential cation channel subfamily A member 1 (TRPA1) • Transient receptor potential cation channel subfamily V member 1 (TRPV1) • Transient receptor potential cation channel subfamily M member 8 (TRPM8) • Hemoglobin Subunit Beta (HBB) REFERENCE GENE • Ribosomal Protein L13a (RPL13A) REFERENCE GENE […]

Where [1] appears, read: human skin fibroblasts, 10 uM, 24 hr.

As for `CCCCCCCCCCCCCCCC(=O)NCCO` [N-palmitoylethanolamide], the “TRPA1↑ gene expression, fold increase or decrease vs untreated cells” value under setting [1] is 8.2 fold.

For the compound `CC(C)[C@]12O[C@H]1[C@@H]1O[C@]13[C@]1(O[C@H]1C[C@H]1C4=C(CC[C@@]13C)C(=O)OC4)[C@@H]2O` [Triptolide], under setting [1], the fold induction at 10 µM is 26.1.

With `C=C(C)[C@@H]1CCC(C)=C[C@H]1c1c(O)cc(CCCCC)cc1O` [CBD, cannabidiol, reference compound], the fold induction at 10 µM (Homo sapiens, 24 h) came out at 2.7.
